In general, IC50 refers to the concentration needed to halve the response being measured. High values mean lower potency, low ones higher potency.

The test system of the first test is MV-4-11 cells. In words: MV-4-11 cell proliferation inhibition, CCK-8. The test is classed as cell-based. The conditions noted are these: Homo sapiens, MV4-11, 96 h, MV-4-11, 4 days, Table 6, positive control Alisertib. As for the experimental part: The complete medium required for MV-4-11 cells is IMDM (ATCC, Product number: 30-2005) basal medium containing 10% fetal bovine serum. MV-4-11 cells were seeded in a 96-well plate at a density of 7,500 cells/well, and different concentrations of the compound of the present invention and positive control samples Alisertib (source: Bide Pharmaceuticals), Palbociclib (source: Bide Pharmaceuticals), Ibrutinib (source Bide Pharmaceuticals) treated cells. The cells were incubated in a 37° C., 5% CO2 cell incubator for 4 days. Cell viability was detected using the CCK-8 kit (Beyotime, Product number: C0040) according to the manufacturer's instructions. According to the inhibition rate, GraphPad Prism software was used to calculate the IC50 value of each compound for 4 days, and the results are shown in Table 6-8.
Turning to `COc1cc(Nc2ncc3c(n2)-c2ccc(Cl)cc2C(c2c(F)cccc2OC)=NC3)ccc1C(=O)N1CCC2(CC1)COc1cc3c(cc1O2)CN(C1CCC(=O)NC1=O)C3=O` (centres unmarked) [PROTAC 2, 3-(1-(4-((9-chloro-7-(2-fluoro-6-methoxyphenyl)-5H-benzo[c]pyrimido[4,5-e]azepine-2-yl)amino)-2-methoxybenzoyl)-6′-oxo-6′,8′-dihydro-3′H,7′H-spiro[piperidine-4,2′-[1,4]dioxino[2,3-f]isoindole]-7′-yl)piperidine-2,6-dione], the IC50 amounted to 81 nM.
On the same count and under the same terms, for `COc1cc(Nc2ncc3c(n2)-c2ccc(Cl)cc2C(c2c(F)cccc2OC)=NC3)ccc1C(=O)NCCOCCC(=O)N1CCC2(CCc3cc4c(cc3O2)C(=O)N(C2CCC(=O)NC2=O)C4=O)CC1` (centres unmarked) [PROTAC 5, 4-((9-chloro-7-(2-fluoro-6-methoxyphenyl)-5H-benzo[c]pyrimido[4,5-e]azepine-2-yl)amino)-N-(2-(3-(7′-(2,6-dioxopiperidin-3-yl)-6′,8′-dioxo-4′,6′,7′,8′-tetrahydro-3′H-spiro[piperidine-4,2′-pyrano[2,3-f]isoindol]-1-yl)-3-oxopropoxy)ethyl)-2-methoxybenzamide] the value was 420 nM.

A further test concerns VCaP cells. In words: VCaP cell proliferation inhibition, CCK-8. The test is classed as cell-based. As to conditions: Homo sapiens, 168 h, 7 days. The text has this: The complete medium required for VCaP cells is DMEM high glucose (Gibco, Product number: 11995-065) basal medium containing 10% fetal bovine serum. […] Cell viability was detected using the CCK-8 kit (Beyotime, Product number: C0040) according to the manufacturer's instructions.
`CC1(C)C(=O)N(c2ccc(C#N)c(C(F)(F)F)c2)C(=S)N1c1ccc(C(=O)N2CC(CN3CCC4(CCc5cc6c(cc5O4)C(=O)N(C4CCC(=O)NC4=O)C6=O)CC3)C2)c(F)c1` (centres unmarked) [PROTAC 71] yielded an IC50 of 4.57 µM.
Same read-out and setting: next, `CC1(C)C(=O)N(c2ccc(C#N)c(C(F)(F)F)c2)C(=S)N1c1ccc(C(=O)N2CCC(N3CCC4(CC3)COc3cc5c(cc3C4)C(=O)N(C3CCC(=O)NC3=O)C5=O)CC2)c(F)c1` (centres unmarked) [PROTAC 78, 4-(3-(4-(4-(7′-(2,6-dioxopiperidin-3-yl)-6′,8′-dioxo-4′,6′,7′,8′-tetrahydro-2′H-spiro[piperidine-4,3′-pyrano[2,3-f]isoindol]-1-yl)piperidine-1-carbonyl)-3-fluorophenyl)-4,4-dimethyl-5-oxo-2-thioimidazolidin-1-yl)-2-(trifluoromethyl)benzonitrile]: 2.7 µM; `CC1(C)C(=O)N(c2ccc(C#N)c(C(F)(F)F)c2)C(=S)N1c1ccc(C(=O)N2CC3(CC(N4CCC5(CC4)COc4cc6c(cc45)C(=O)N(C4CCC(=O)NC4=O)C6=O)C3)C2)c(F)c1` (centres unmarked) [PROTAC 79, 4-(3-(4-(6-(6-(2,6-dioxopiperidin-3-yl)-5,7-dioxo-6,7-dihydro-2H,5H-spiro[furo[2,3-f]isoindole-3,4′-piperidin]-1′-yl)-2-azaspiro[3.3]heptane-2-carbonyl)-3-fluorophenyl)-4,4-dimethyl-5-oxo-2-thioimidazolidin-1-yl)-2-(trifluoromethyl)benzonitrile]: 4.09 µM.
Regarding `CC1(C)C(=O)N(c2ccc(C#N)c(C(F)(F)F)c2)C(=S)N1c1ccc(C(=O)N2CC(N3CCC4(CC3)COc3cc5c(cc34)C(=O)N(C3CCC(=O)NC3=O)C5=O)C2)c(F)c1` (centres unmarked) [PROTAC 81, 4-(3-(4-(3-(6-(2,6-dioxopiperidin-3-yl)-5,7-dioxo-6,7-dihydro-2H,5H-spiro[furo[2,3-f]isoindole-3,4′-piperidin]-1′-yl)azetidine-1-carbonyl)-3-fluorophenyl)-4,4-dimethyl-5-oxo-2-thioimidazolidin-1-yl)-2-(trifluoromethyl)benzonitrile], 9.51 µM corresponded to half-maximal inhibition (IC50).
The same measure, in the same setting: next, `CC1(C)C(=O)N(c2ccc(C#N)c(C(F)(F)F)c2)C(=S)N1c1ccc(C(=O)N2CCC(F)(CN3CCC4(CCc5cc6c(cc5O4)C(=O)N(C4CCC(=O)NC4=O)C6=O)CC3)CC2)c(F)c1` (centres unmarked) [PROTAC 82]: 1.3 µM.
Turning to `CC1(C)C(=O)N(c2ccc(C#N)c(C(F)(F)F)c2)C(=S)N1c1ccc(C(=O)N2CCC(CN3CCC4(CCc5cc6c(cc5O4)C(=O)N(C4CCC(=O)NC4=O)C6=O)CC3)CC2)c(F)c1` (centres unmarked) [PROTAC 84], the midpoint of inhibition, the IC50, lay at 3.8 µM.

These data come from patent publication US20250129088A1, “CEREBLON E3 UBIQUITIN LIGASE INHIBITOR” (Gan & Lee Pharmaceuticals Co., Ltd., priority 2022, published 2025).
